Laboratory results: ChEMBL document CHEMBL1155096, “A regiospecific synthesis of a series of 1-sulfonyl azepinoindoles as potent 5-HT6 ligands” (Bioorg Med Chem Lett, 2008)
Calls of active or inactive are those of the source. The rule behind the calls is not given here.

Experiments:
[1] = molecular target: T1, 5-hydroxytryptamine receptor 6 (Homo sapiens, UniProt P50406); experiment: Antagonist activity at cloned human 5HT6 receptor expressed in HeLa cells assessed as production of cAMP; type: functional, cell-based
T1 sequence (P50406 whole entry): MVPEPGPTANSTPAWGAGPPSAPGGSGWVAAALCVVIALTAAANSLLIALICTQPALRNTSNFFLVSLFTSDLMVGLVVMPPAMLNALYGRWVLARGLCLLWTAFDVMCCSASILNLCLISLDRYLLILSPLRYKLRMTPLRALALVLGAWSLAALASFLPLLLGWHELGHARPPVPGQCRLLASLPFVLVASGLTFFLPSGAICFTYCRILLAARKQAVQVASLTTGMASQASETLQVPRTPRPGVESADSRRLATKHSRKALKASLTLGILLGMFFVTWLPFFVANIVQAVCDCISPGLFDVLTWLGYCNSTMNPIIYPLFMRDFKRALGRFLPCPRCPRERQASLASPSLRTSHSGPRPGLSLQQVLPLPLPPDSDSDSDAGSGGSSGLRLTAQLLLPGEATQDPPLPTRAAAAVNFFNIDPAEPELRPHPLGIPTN

[2] = molecular target: T1, 5-hydroxytryptamine receptor 6; experiment: Displacement of [3H]-LSD from cloned human 5HT6 receptor expressed in HeLa cells; type: cell-based
[3] = molecular target: T2, 5-hydroxytryptamine receptor 2C (Homo sapiens, UniProt P28335); experiment: Inhibition of 5HT2C
T2 sequence (P28335 whole entry): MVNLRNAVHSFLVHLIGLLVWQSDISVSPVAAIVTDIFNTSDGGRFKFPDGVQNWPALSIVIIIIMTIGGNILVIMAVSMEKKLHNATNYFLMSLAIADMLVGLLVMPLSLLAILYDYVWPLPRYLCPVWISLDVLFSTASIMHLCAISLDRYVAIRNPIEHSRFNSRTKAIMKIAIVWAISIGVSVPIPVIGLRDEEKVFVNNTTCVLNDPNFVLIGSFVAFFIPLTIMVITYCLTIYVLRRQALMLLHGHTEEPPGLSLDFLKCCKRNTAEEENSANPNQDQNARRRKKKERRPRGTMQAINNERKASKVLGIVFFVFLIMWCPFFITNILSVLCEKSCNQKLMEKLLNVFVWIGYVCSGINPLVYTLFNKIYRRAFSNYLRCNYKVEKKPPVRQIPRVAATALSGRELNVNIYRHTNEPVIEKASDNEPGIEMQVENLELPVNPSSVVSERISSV

Row | SMILES | Activity [1] | Ki [2] [nM] | IC50 [1] [nM] | Ki [3] [nM]
1 | COc1cccc(S(=O)(=O)n2c3c(c4ccccc42)CCN(C)CC3)c1 | Active | 19 |  | 
2 | CCN1CCc2c(n(S(=O)(=O)c3cccc(OC)c3)c3ccccc23)CC1 | Active | 50 |  | 
3 | COc1cccc(S(=O)(=O)n2c3c(c4ccccc42)CCN(C2CCCC2)CC3)c1 | Active | 324 |  | 
4 | CCCN1CCc2c(n(S(=O)(=O)c3cccc(OC)c3)c3ccccc23)CC1 | Active | 124 |  | 
5 | Cc1ccc(S(=O)(=O)n2c3c(c4ccccc42)CCNCC3)cc1 | Active | 29 |  | 
6 | O=S(=O)(c1cccc(Cl)c1)n1c2c(c3ccccc31)CCNCC2 | Active | 41 |  | 
7 | Cc1cccc(S(=O)(=O)n2c3c(c4ccccc42)CCNCC3)c1 | Active | 68 |  | 
8 | O=S(=O)(c1ccccc1Cl)n1c2c(c3ccccc31)CCNCC2 | Active | 19 |  | 
9 | COc1cccc(S(=O)(=O)n2c3c(c4ccccc42)CCN(C(C)C)CC3)c1 | Active | 85 |  | 
10 | O=S(=O)(c1ccc(F)cc1)n1c2c(c3ccccc31)CCNCC2 | Active | 23 |  | 
11 | O=S(=O)(c1ccc(C(F)(F)F)cc1)n1c2c(c3ccccc31)CCNCC2 | Active | 46 |  | 

Results, then the compound that gave them:

Row | Activity [1] | Ki [2] [nM] | IC50 [1] [nM] | Ki [3] [nM] | SMILES
12 | Active | 33 |  |  | O=S(=O)(c1cccc(F)c1)n1c2c(c3ccccc31)CCNCC2
13 | Active | 504 |  |  | COc1cccc(S(=O)(=O)n2c3c(c4ccccc42)CCN(CCc2ccccc2)CC3)c1
14 | Active | 33 |  |  | COc1ccc(S(=O)(=O)n2c3c(c4ccccc42)CCNCC3)cc1
15 | Active | 253 |  |  | COc1cccc(S(=O)(=O)n2c3c(c4ccccc42)CCN(C2CCCCC2)CC3)c1
16 | Active | 89 |  |  | O=S(=O)(c1cccc(C(F)(F)F)c1)n1c2c(c3ccccc31)CCNCC2
17 | Active | 193 |  |  | O=S(=O)(c1ccccc1)n1c2c(c3ccccc31)CCNCC2
18 | Active | 319 |  |  | COc1cccc(S(=O)(=O)n2c3c(c4ccccc42)CCN(Cc2ccccc2)CC3)c1
19 | Active | 12 |  |  | COc1cccc(S(=O)(=O)n2c3c(c4ccccc42)CCNCC3)c1
20 | Active | 12 |  |  | CCN1CCc2c(n(S(=O)(=O)c3ccccc3)c3ccccc23)CC1
21 | Active | 24 |  |  | O=S(=O)(c1ccc2c(Cl)cccc2c1)n1c2c(c3ccccc31)CCNCC2
22 | Active | 18 |  |  | O=S(=O)(c1ccc(Cl)cc1)n1c2c(c3ccccc31)CCNCC2
23 |  | 19 | 162 | 14 | COc1ccccc1S(=O)(=O)n1c2c(c3ccccc31)CCNCC2
